Assay results from patent US8461328B2, “Tricyclic heterocyclic compounds, compositions and methods of use thereof” (Genentech, Inc., priority 2010, dated 2013).

Columns and labels:
Format in all cases: biochemical
JAK2 = target: T1, JAK2 (Homo sapiens, UniProt O60674); assay: JAK2 inhibition (Table 4); conditions: read-out: JAK2 Ki
T1 construct: made in house; host or cells: SF9 insect cells (baculovirus)

JAK3 = target: T2, JAK3 (Homo sapiens, UniProt P52333); assay: JAK3 inhibition (Table 4); conditions: read-out: JAK3 Ki
T2 construct: made in house; host or cells: SF9 insect cells (baculovirus)
T2 sequence (P52333 783-1124): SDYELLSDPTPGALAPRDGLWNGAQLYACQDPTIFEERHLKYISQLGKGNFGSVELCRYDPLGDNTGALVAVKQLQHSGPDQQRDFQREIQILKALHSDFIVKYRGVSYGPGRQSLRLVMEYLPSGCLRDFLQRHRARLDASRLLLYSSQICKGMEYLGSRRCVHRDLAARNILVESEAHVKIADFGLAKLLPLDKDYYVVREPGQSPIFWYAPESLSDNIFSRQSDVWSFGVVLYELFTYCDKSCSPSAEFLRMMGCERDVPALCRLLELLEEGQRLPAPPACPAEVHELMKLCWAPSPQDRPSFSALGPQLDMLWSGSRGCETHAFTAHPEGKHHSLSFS

JAK1 = target: T3, JAK1 (Homo sapiens, UniProt P23458); assay: JAK1 inhibition (Table 4); conditions: read-out: JAK1 Ki
T3 construct: made in house; host or cells: SF9 insect cells (baculovirus)
T3 sequence (P23458 852-1154): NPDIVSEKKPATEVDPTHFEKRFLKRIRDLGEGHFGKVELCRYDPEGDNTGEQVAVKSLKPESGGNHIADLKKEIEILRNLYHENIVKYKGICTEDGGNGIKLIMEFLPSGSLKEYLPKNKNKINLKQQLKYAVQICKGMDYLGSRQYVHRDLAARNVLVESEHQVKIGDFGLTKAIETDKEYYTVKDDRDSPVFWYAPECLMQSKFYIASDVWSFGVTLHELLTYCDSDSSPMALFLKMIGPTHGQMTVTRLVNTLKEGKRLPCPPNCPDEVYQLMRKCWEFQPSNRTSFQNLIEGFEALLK

TYK2 = target: T4, TYK2 (Homo sapiens, UniProt P29597); assay: TYK2 inhibition (Table 4)
T4 construct: made in house; host or cells: SF9 insect cells (baculovirus)
T4 sequence (P29597 873-1187): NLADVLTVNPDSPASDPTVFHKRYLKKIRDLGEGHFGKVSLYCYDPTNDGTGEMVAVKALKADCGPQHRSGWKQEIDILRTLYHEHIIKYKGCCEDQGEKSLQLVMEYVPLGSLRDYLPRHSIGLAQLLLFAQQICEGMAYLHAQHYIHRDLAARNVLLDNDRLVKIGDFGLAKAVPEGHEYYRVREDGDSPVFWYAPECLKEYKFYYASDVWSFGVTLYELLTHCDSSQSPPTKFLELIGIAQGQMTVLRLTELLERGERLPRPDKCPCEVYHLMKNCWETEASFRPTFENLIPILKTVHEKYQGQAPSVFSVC

T1 sequence (O60674 812-1132): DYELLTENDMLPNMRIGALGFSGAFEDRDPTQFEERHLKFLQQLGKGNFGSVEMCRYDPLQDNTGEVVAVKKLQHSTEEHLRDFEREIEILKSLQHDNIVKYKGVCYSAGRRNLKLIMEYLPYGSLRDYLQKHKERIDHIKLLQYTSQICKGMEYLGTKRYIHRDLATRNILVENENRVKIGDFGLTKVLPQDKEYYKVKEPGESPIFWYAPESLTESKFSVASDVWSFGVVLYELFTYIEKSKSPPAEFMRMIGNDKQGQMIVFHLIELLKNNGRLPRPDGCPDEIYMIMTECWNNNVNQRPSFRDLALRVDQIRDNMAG

CC(C)(C)OC(=O)N1CC(c2nc3cnc4[nH]ccc4c3n2C2CCN(Cc3ccccc3)CC2)C1 [Example 161, 3-[1-(1-Benzyl-piperidin-4-yl)-1,6-dihydro-1,2,3,5,6-tetraaza-as-indacen-2-yl]azetidine-1-carboxylic acid tert-butyl ester]
Ki (JAK2): 31.8 nM | Ki (JAK3): 20.5 nM | Ki (JAK1): 11.6 nM | Ki (TYK2): 386 nM

c1ccc(CN2CCC(n3c(C4CNC4)nc4cnc5[nH]ccc5c43)CC2)cc1 [Example 162, 2-Azetidin-3-yl-1-(1-benzyl-piperidin-4-yl)-1,6-dihydro-1,2,3,5,6-tetraaza-as-indacene]
Ki (JAK2): 23.1 nM | Ki (JAK3): 46.8 nM | Ki (JAK1): 7.45 nM | Ki (TYK2): 677 nM

N#Cc1nc2cnc3[nH]ccc3c2n1C1CCN(Cc2ccccc2)CC1 [Example 163, 1-(1-Benzyl-piperidin-4-yl)-1,6-dihydro-1,2,3,5,6-tetraaza-as-indacene-2-carbonitrile]
Ki (JAK2): 10 nM | Ki (JAK3): 28.1 nM | Ki (JAK1): 11.2 nM | Ki (TYK2): 607 nM

CC(C)NC(=O)[C@H]1CC[C@H](n2nnc3cnc4[nH]ccc4c32)CC1 [Example 165, Trans 4-(6H-1,2,3,5,6-Pentaaza-as-indacen-1-yl)-cyclohexanecarboxylic acid isopropylamide]
Ki (JAK2): 177 nM | Ki (JAK3): 802 nM | Ki (JAK1): 48.9 nM | Ki (TYK2): 550 nM

O=C([C@H]1CC[C@H](n2cnc3cnc4[nH]ccc4c32)CC1)N1CCOCC1 [Example 166, Trans Morpholin-4-yl-[4-(6H-1,2,3,5,6-tetraaza-as-indacen-1-yl)-cyclohexyl]-methanone]
Ki (JAK2): 151 nM | Ki (JAK3): 255 nM | Ki (JAK1): 145 nM | Ki (TYK2): 1020 nM

FC(F)(F)c1nc2cnc3[nH]ccc3c2n1C1CCN(Cc2ccccc2)CC1 [Example 167, 1-(1-Benzyl-piperidin-4-yl)-2-trifluoromethyl-1,6-dihydro-1,2,3,5,6-tetraaza-as-indacene]
Ki (JAK2): 14.1 nM | Ki (JAK3): 6.48 nM | Ki (JAK1): 10.4 nM | Ki (TYK2): 820 nM

CC(C)c1nc2cnc3[nH]ccc3c2n1C1CCNCC1 [Example 168, 2-Isopropyl-1-piperidin-4-yl-1,6-dihydro-1,2,3,5,6-tetraaza-as-indacene]
Ki (JAK2): 312 nM | Ki (JAK3): 330 nM | Ki (JAK1): 25.3 nM | Ki (TYK2): 1390 nM

N#Cc1nc2cnc3[nH]ccc3c2n1C1CCNCC1 [Example 170, 1-Piperidin-4-yl-1,6-dihydro-1,2,3,5,6-tetraaza-as-indacene-2-carbonitrile]
Ki (JAK2): 334 nM | Ki (JAK3): 1050 nM | Ki (JAK1): 92.9 nM | Ki (TYK2): 956 nM

OC(CN1CCC(n2cnc3cnc4[nH]ccc4c32)CC1)(C(F)(F)F)C(F)(F)F [Example 174, 1,1,1,3,3,3-Hexafluoro-2-[4-(6H-1,2,3,5,6-tetraaza-as-indacen-1-yl)-piperidin-1-ylmethyl]-propan-2-ol]
Ki (JAK2): 2.66 nM | Ki (JAK3): 87.4 nM | Ki (JAK1): 1.58 nM | Ki (TYK2): 7.53 nM

N#Cc1ccc(N[C@H]2CC[C@H](n3cnc4cnc5[nH]ccc5c43)CC2)nc1 [Example 176, Trans 6-[4-(6H-1,2,3,5,6-Tetraaza-as-indacen-1-yl)-cyclohexylamino]-nicotinonitrile]
Ki (JAK2): 7.05 nM | Ki (JAK3): 95.8 nM | Ki (JAK1): 2.16 nM | Ki (TYK2): 24.3 nM

CN1CCC[C@H]1CN1CCC(n2cnc3cnc4[nH]ccc4c32)CC1 [Example 177, 1-[1-((S)-1-Methyl-pyrrolidin-2-ylmethyl)-piperidin-4-yl]-1,6-dihydro-1,2,3,5,6-tetraaza-as-indacene]
Ki (JAK2): 144 nM | Ki (JAK3): 1400 nM | Ki (JAK1): 42 nM | Ki (TYK2): 519 nM

Cc1nc2cnc3[nH]ccc3c2n1C1CCOC(C)(C)C1 (stereo not drawn) [Example 178, 1-(2,2-Dimethyl-tetrahydro-pyran-4-yl)-2-methyl-1,6-dihydro-1,2,3,5,6-tetraaza-as-indacene]
Ki (JAK2): 22.3 nM | Ki (JAK3): 16.2 nM | Ki (JAK1): 73.8 nM | Ki (TYK2): 104 nM

FC1(F)CN(Cc2ccccc2)CCC1n1cnc2cnc3[nH]ccc3c21 (stereo not drawn) [Example 179, 1-(1-Benzyl-3,3-difluoro-piperidin-4-yl)-1,6-dihydro-1,2,3,5,6-tetraaza-as-indacene]
Ki (JAK2): 1.11 nM | Ki (JAK3): 13.2 nM | Ki (JAK1): 0.58 nM | Ki (TYK2): 21.6 nM

O=CN1CCC(n2cnc3cnc4[nH]ccc4c32)C(F)(F)C1 (stereo not drawn) [Example 180, 3,3-Difluoro-4-(6H-1,2,3,5,6-tetraaza-as-indacen-1-yl)-piperidine-1-carbaldehyde]
Ki (JAK2): 19.9 nM | Ki (JAK3): 101 nM | Ki (JAK1): 5.55 nM | Ki (TYK2): 63.2 nM

Cc1nc2cnc3[nH]ccc3c2n1-c1ccc(C#N)cc1 [Example 183, 4-(2-Methyl-6H-1,2,3,5,6-tetraaza-as-indacen-1-yl)-benzonitrile]
Ki (JAK2): 44.9 nM | Ki (JAK3): 650 nM | Ki (JAK1): 20.4 nM | Ki (TYK2): 72.7 nM

OCCN1CC[C@@H](n2cnc3cnc4[nH]ccc4c32)C1 [Example 184, 2-[(R)-3-(6H-1,2,3,5,6-Tetraaza-as-indacen-1-yl)-pyrrolidin-1-yl]-ethanol]
Ki (JAK2): 250 nM | Ki (JAK3): 1490 nM | Ki (JAK1): 94.7 nM | Ki (TYK2): 644 nM

CC(C)(O)CN1CC[C@@H](n2cnc3cnc4[nH]ccc4c32)C1 [Example 185, 2-Methyl-1-[(R)-3-(6H-1,2,3,5,6-tetraaza-as-indacen-1-yl)-pyrrolidin-1-yl]-propan-2-ol]
Ki (JAK2): 162 nM | Ki (JAK3): 502 nM | Ki (JAK1): 105 nM | Ki (TYK2): 708 nM

CC(C)(C#N)C(=O)N1CC[C@@H](n2cnc3cnc4[nH]ccc4c32)C1 [Example 186, 2,2-Dimethyl-3-oxo-3-[(R)-3-(6H-1,2,3,5,6-tetraaza-as-indacen-1-yl)-pyrrolidin-1-yl]-propionitrile]
Ki (JAK2): 167 nM | Ki (JAK3): 3170 nM | Ki (JAK1): 220 nM | Ki (TYK2): 1500 nM

N#CCCN1CC[C@@H](n2cnc3cnc4[nH]ccc4c32)C1 [Example 187, 3-[(R)-3-(6H-1,2,3,5,6-Tetraaza-as-indacen-1-yl)-pyrrolidin-1-yl]-propionitrile]
Ki (JAK2): 22.3 nM | Ki (JAK3): 57.6 nM | Ki (JAK1): 10.1 nM | Ki (TYK2): 58.8 nM

CC(=O)N1CC[C@@H](n2cnc3cnc4[nH]ccc4c32)C1 [Example 188, 1-[(R)-3-(6H-1,2,3,5,6-Tetraaza-as-indacen-1-yl)-pyrrolidin-1-yl]-ethanone]
Ki (JAK2): 161 nM | Ki (JAK3): 778 nM | Ki (JAK1): 68.5 nM | Ki (TYK2): 672 nM

CS(=O)(=O)N1CC[C@@H](n2cnc3cnc4[nH]ccc4c32)C1 [Example 190, 1-((R)-1-Methanesulfonyl-pyrrolidin-3-yl)-1,6-dihydro-1,2,3,5,6-tetraaza-as-indacene]
Ki (JAK2): 67.4 nM | Ki (JAK3): 59.2 nM | Ki (JAK1): 62.7 nM | Ki (TYK2): 114 nM

N#Cc1ccc(CN2CC[C@@H](n3cnc4cnc5[nH]ccc5c43)C2)cc1 [Example 191, 4-[(R)-3-(6H-1,2,3,5,6-Tetraaza-as-indacen-1-yl)-pyrrolidin-1-ylmethyl]-benzonitrile]
Ki (JAK2): 17.6 nM | Ki (JAK3): 192 nM | Ki (JAK1): 4.87 nM | Ki (TYK2): 169 nM

COCC(=O)N1CCC(n2cnc3cnc4[nH]ccc4c32)CC1 [Example 192, 2-Methoxy-1-[4-(6H-1,2,3,5,6-tetraaza-as-indacen-1-yl)-piperidin-1-yl]-ethanone]
Ki (JAK2): 51.3 nM | Ki (JAK3): 401 nM | Ki (JAK1): 24.5 nM | Ki (TYK2): 388 nM

O=S(=O)(CCO)N1CCC(n2cnc3cnc4[nH]ccc4c32)CC1 [Example 194, 2-[4-(6H-1,2,3,5,6-Tetraaza-as-indacen-1-yl)-piperidine-1-sulfonyl]-ethanol]
Ki (JAK2): 5.32 nM | Ki (JAK3): 282 nM | Ki (JAK1): 3.91 nM | Ki (TYK2): 30.7 nM

N#CCC1(N2CCC(n3cnc4cnc5[nH]ccc5c43)CC2)COC1 [Example 195, {3-[4-(6H-1,2,3,5,6-Tetraaza-as-indacen-1-yl)-piperidin-1-yl]-oxetan-3-yl}-acetonitrile]
Ki (JAK2): 1.13 nM | Ki (JAK3): 27.6 nM | Ki (JAK1): 0.66 nM | Ki (TYK2): 2.16 nM

c1cc2c(ncc3ncn(C4CCc5[nH]ncc5C4)c32)[nH]1 (stereo not drawn) [Example 198, 1-(4,5,6,7-Tetrahydro-1H-indazol-5-yl)-1,6-dihydro-1,2,3,5,6-tetraaza-as-indacene]
Ki (JAK2): 10.2 nM | Ki (JAK3): 25.7 nM | Ki (JAK1): 6.38 nM | Ki (TYK2): 41.4 nM

C[C@@H](O)c1nc2cnc3[nH]ccc3c2n1[C@H]1CCCOC1 [Example 199, (R)-1-[(S)-1-(Tetrahydro-pyran-3-yl)-1,6-dihydro-1,2,3,5,6-tetraaza-as-indacen-2-yl]-ethanol]
Ki (JAK2): 67.5 nM | Ki (JAK3): 110 nM | Ki (JAK1): 2.49 nM | Ki (TYK2): 27.6 nM

c1ccc(CN2CCC(n3c(Cn4cccn4)nc4cnc5[nH]ccc5c43)CC2)cc1 [Example 201, 1-(1-Benzyl-piperidin-4-yl)-2-pyrazol-1-ylmethyl-1,6-dihydro-1,2,3,5,6-tetraaza-as-indacene]
Ki (JAK2): 25 nM | Ki (JAK3): 12.2 nM | Ki (JAK1): 7.28 nM | Ki (TYK2): 488 nM

CN(Cc1nc2cnc3[nH]ccc3c2n1C1CCN(Cc2ccccc2)CC1)S(C)(=O)=O [Example 203, N-[1-(1-Benzyl-piperidin-4-yl)-1,6-dihydro-1,2,3,5,6-tetraaza-as-indacen-2-ylmethyl]-N-methyl-methanesulfonamide]
Ki (JAK2): 145 nM | Ki (JAK3): 104 nM | Ki (JAK1): 19.6 nM | Ki (TYK2): 258 nM

c1cnn(Cc2nc3cnc4[nH]ccc4c3n2C2CCNCC2)c1 [Example 204, 1-Piperidin-4-yl-2-pyrazol-1-ylmethyl-1,6-dihydro-1,2,3,5,6-tetraaza-as-indacene]
Ki (JAK2): 1540 nM | Ki (JAK3): 862 nM | Ki (JAK1): 91.9 nM | Ki (TYK2): 1470 nM
